The values below come from patent US9797907B2, “Isolation, detection, diagnosis and/or characterization of circulating Trop-2-positive cancer cells” (Immunomedics, Inc., priority 2015, dated 2017).

For series [1] the following is noted: irinotecan 125 mg/m^2 weekly×4, Q6W; cited from earlier work.
Series [2] relates to patients with diverse metastatic cancers. Nature of the series: Phase I / phase II extension clinical trial of IMMU-132: best response, time to progression, case reports. Format: in vivo, human.
Experimental: In a 3+3 trial design, IMMU-132 was given on days 1 and 8 in repeated 21-day cycles, starting at 8 mg/kg/dose, then 12 and 18 mg/kg before dose-limiting neutropenia. To optimize cumulative treatment with minimal delays, phase II is focusing on 8 and 10 mg/kg (n=30 and 14, respectively). […] In the Phase I and the expansion phases, there are now 48 pts (excluding PDC) who are assessable by RECIST/CT for best response.
A total of 69 patients (including 25 patients in Phase I) with diverse metastatic cancers having a median of 3 prior therapies were reported. Eight patients had clinical progression and withdrew before CT assessment. Thirteen CT-assessable pancreatic cancer patients were separately reported.
A total of 48 patients with diverse cancers had at least 1 CT-assessment from which Best Response (not shown) and Time to Progression (TTP; not shown) were determined.
The nature of series [3]: Phase I/II clinical trial of IMMU-132: related adverse events and dose reductions. Format: in vivo, human.
A short description of series [4]: Clinical pharmacokinetics of IMMU-132 in serum (ELISA, HPLC of SN-38). The series is classed as in vivo, human. The protocol:
Two ELISA methods were used to measure the clearance of the IgG (capture with anti-hRS7 idiotype antibody) and the intact conjugate (capture with anti-SN-38 IgG/probe with anti-hRS7 idiotype antibody). SN-38 was measured by HPLC.
For orientation: In an ELISA, binding on a coated surface is turned into a signal by an enzyme label.

In series [5] the test system is Capan-1 human pancreatic tumor xenografts. Nature of the series: SN-38 delivery to tumor in nude mice bearing Capan-1 xenografts. Format: in vivo. The text has this: The present Example reports results from a phase I clinical trial and ongoing phase II extension with IMMU-132 (sacituzumab govitecan), an antibody-drug conjugate (ADC) of the internalizing, humanized, hRS7 anti-Trop-2 antibody conjugated by a pH-sensitive linker to SN-38 (mean drug-antibody ratio=7.6). Trop-2 is a type I transmembrane, calcium-transducing, protein expressed at high density (˜1×10^5), frequency, and specificity by many human carcinomas, with limited normal tissue expression.

Series [6] is described as follows: In vivo animal studies of SN-38 release from conjugate.
Series [7] deals with stage IIIB NSCLC (squamous cell carcinoma). Description: Example 10: treatment of NSCLC patient after detection of Trop-2+ CTCs. Format: in vivo, human. The following applies: person. The protocol:
A […]® system and Circulating Tumor Cell Kit are obtained Veridex LLC (Raritan, N.J.). A 7.5 ml blood sample is collected from a person with suspected NSCLC and stored in a CellSave tube (Veridex LLC). The anti-Trop-2 hRS7 antibody is substituted for the anti-EpCAM antibody provided with the […]® kit. The blood sample is mixed with magnetic nanoparticles conjugated to anti-Trop-2 antibody. Cells are stained with fluorescently labeled anti-CD45 and anti-CK antibodies and cell nuclei are fluorescently labeled with DAPI nuclear dye. A strong magnetic field is generated in the […]® system and used to separate cells bound to the magnetic nanoparticles, which are then analyzed by FISH to determine Trop-2 copy number, as described in Example 7 above.
Initial treatment of caboplatin/etoposide (3 mo) in concert with 7000 cGy XRT results in a response lasting 10 mo. The patient is then started on Tarceva maintenance therapy, which they continue until they were considered for IMMU-132 (hRS7-CL2A-SN-38) trial, in addition to undergoing a lumbar laminectomy. They receive the first dose of IMMU-132 after 5 months of Tarceva, presenting at the time with a 5.6-cm lesion in the right lung with abundant pleural effusion.

The conditions of series [8]: human, in vivo.
The target in series [9] is DDD of the RII form of PKA (Homo sapiens, UniProt P13861). The note with it: Alto et al. 2003; read-out: binding constant for DDD; cited from earlier work.
The next series deals with RII isoform of PKA (Homo sapiens, UniProt P13861). The note with it: Gold et al. 2006; cited from earlier work.
Where [10] appears, read: 48 pts (excluding PDC) assessable by RECIST/CT.
[11] abbreviates: all patients treated, 48 assessable.
Where [12] appears, read: esophageal cancer, 4 assessable patients.
[13] abbreviates: starting dose 8 or 10 mg/kg, N = 123 patients.

Several values for one entry are separate records, joined by “and”; a condition that tells them apart may be missing. Identical values can stand only once.

Sequence of DDD of the RII form of PKA (P13861 2-45 limits assumed): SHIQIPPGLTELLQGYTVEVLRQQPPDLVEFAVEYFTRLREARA
Sequence of RII isoform of PKA (P13861 whole entry, canonical isoform): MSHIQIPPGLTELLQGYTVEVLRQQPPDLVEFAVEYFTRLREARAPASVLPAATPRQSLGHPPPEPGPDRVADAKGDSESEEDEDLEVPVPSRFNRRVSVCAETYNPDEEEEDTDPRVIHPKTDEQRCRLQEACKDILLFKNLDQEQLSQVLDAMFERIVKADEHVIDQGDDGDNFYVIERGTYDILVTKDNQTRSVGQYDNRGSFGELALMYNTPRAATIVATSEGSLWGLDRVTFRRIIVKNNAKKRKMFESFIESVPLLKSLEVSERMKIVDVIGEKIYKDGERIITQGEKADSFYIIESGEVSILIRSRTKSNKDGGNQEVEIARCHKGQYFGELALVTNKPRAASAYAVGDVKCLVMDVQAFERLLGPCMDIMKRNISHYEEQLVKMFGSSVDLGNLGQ

As to `CCc1c2c(nc3ccc(OC(=O)N4CCC(N5CCCCC5)CC4)cc13)-c1cc3c(c(=O)n1C2)COC(=O)[C@]3(O)CC` [irinotecan], in [1], the “incidence of grade ¾ diarrhea” value was 38%, the incidence of neutropenia is recorded as 31% and the “incidence of neutropenic fever/infection” value is recorded as 8%.
Consider `CC[C@@]1(O)C(=O)OCc2c1cc1n(c2=O)Cc2cc3c(CN(C)C)c(O)ccc3nc2-1` [topotecan, reference compound], for which, in [2] (person with SCLC, therapy ended after 2 months), the “response to prior therapy” value is recorded as “no response”.
As for IMMU-132, the “PDC patients with SD” value in series [2] (13 CT-assessable PDC pts) is 62%. The “median time to progression (TTP) in PDC patients” value in series [2] (13 CT-assessable pancreatic cancer patients, 8 wks in last prior therapy) is 12.7 wks and 11.9 wks. Moreover, the “patients with disease response (total)” value in [2] (setting [10]) was 79%. Moreover, the “patients with partial response (PR)” value in [2] (setting [10]) was found to be 15%. Also, the “TTP for the remaining 48 pts” value in series [2] (48 pts excluding PDC) is given as at least 12.6 wks. Moreover, the “total response [PR+SD]” value in series [2] (CRC, 12/18) is 67%; in [2] (NSCLC, ⅘), 80%; in series [2] (SCLC, 2/4) it was 50%; in series [2] (TNBC, 6/8), 75%; in series [2] (all patients treated, 34/48), 71%; in series [2] (esophageal cancer, ¾), 75%. The PD stood at 6 patients in series [2] (CRC, 18 assessable patients); 1 patients in series [2] (NSCLC, 5 assessable patients); 2 patients in [2] (SCLC, 4 assessable patients); 14 patients in series [2] (setting [11]); 1 patients in [2] (setting [12]). The PR turned out to be 1 patients in [2] (CRC, 18 assessable patients); 1 patients in series [2] (NSCLC, 5 assessable patients); 2 patients in [2] (SCLC, 4 assessable patients); 7 patients in series [2] (setting [11]); 1 patients in series [2] (setting [12]). Further, the “clinical benefit ratio (CR+PR+(SD≧4 mo)])” value in series [2] (EAC, 16 assessable patients) worked out at 44%; in [2] (NSCLC, 19 assessable patients), 59%; in [2] (SCLC, 20 assessable patients) it was 55%; in series [2] (TNBC, 46 assessable patients) it was 63%. In addition, the objective response in [2] (EAC, 16 assessable patients (2 patients)) was 13%; in [2] (NSCLC, 19 assessable patients (6 patients)) it was 32%; in [2] (SCLC, 20 assessable patients (6 patients)), 30%; in [2] (TNBC, 46 assessable patients (12 patients)), 26%. The disease control is recorded as 56% in [2] (EAC, 16 assessable patients (9 patients)); 74% in series [2] (NSCLC, 19 assessable patients (14 patients)); 55% in [2] (SCLC, 20 assessable patients (11 patients)); 74% in [2] (TNBC, 46 assessable patients (34 patients)). Also, the “clinical benefit ratio (CR+PR+(SD≧6 mo)])” value is reported as 37% in [2] (SCLC, 20 assessable patients) and 46% in [2] (TNBC, 46 assessable patients). In series [2] (TNBC, 8 assessable patients), the “PD (progressive disease)” value worked out at 2 patients. In addition, the “PR (partial response)” value in series [2] (TNBC, 8 assessable patients) is on record as 2 patients. In addition, in [2] (person with CRC, after 10 months of treatment), the “maximum reduction in target lesions” value is 65%. This molecule displayed a CEA after treatment in [2] (person with CRC, decrease from 781 ng/mL) of 26.5 ng/mL. In addition, in series [2] (person with CRC, starting dose 8 mg/kg), the “reduction in target lesions at first CT assessment” value was determined as 37%. In [2] (person with SCLC, 12 mg/kg reduced to 6.8 mg/kg, after two months), the “reduction in target lesions” value was 38%. For the same molecule, the “primary target lesion size at first CT” value was 3.2 cm in series [2] (person, stage IIIB NSCLC, after 6th dose, 5.6 cm lesion at start) and 3.2 cm in series [7] (stage IIIB NSCLC, after 6th dose, 5.6-cm lesion at start). The molecule further displayed an alopecia in series [3] (human, in vivo) of 40%. Besides, in [3] (human, in vivo), the diarrhea is listed as 47%. Moreover, the “diarrhea ≧G3” value in series [3] (human, in vivo) came to 9%. The molecule further displayed a fatigue in series [3] (human, in vivo) of 55%. The “fatigue ≧G3” value in series [3] (human, in vivo) is 9%. This molecule also gave a nausea in series [3] (human, in vivo) of 53%. For the same molecule, the “nausea ≧G3” value in [3] (human, in vivo) is given as 0%. Moreover, the “neutropenia G4” value in [3] (human, in vivo) turned out to be 4%. For the same molecule, in series [3] (human, in vivo), the “neutropenia ≧G3” value came out at 28%. The molecule further returned a vomiting in [3] (human, in vivo) of 32%. In addition, in series [3] (human, in vivo), the “vomiting ≧G3” value came to 2%. The “patients provided with a dose reduction” value in [3] (human, in vivo, 8 mg/kg) came to 16%; in [3] (human, in vivo, 10 mg/kg), 15%; in series [3] (human, in vivo, 12 mg/kg), 67%; in series [3] (human, in vivo, 18 mg/kg) it was 100%. Also, the “Urinary Tract Infection, Grade 3” value in series [3] (setting [13]) is reported as 1 (1%) patients (%). Also, the “Urinary Tract Infection, Grade 4” value in series [3] (setting [13]) is listed as 0 patients (%). The “clearance of total IMMU-132 fraction (intact conjugate) vs IgG” value in [4] (ELISA) is given as “cleared more quickly than the IgG”. Also, the “SN-38 in the serum bound to the IgG” value in series [4] (HPLC, unbound and total SN-38, non-glucoronidated form) is reported as above 95%. Besides, the “serum SN-38 concentration relative to SN-38 reported in patients given irinotecan” value in series [4] (human, in vivo) is at most 100 fold. In addition, the “time for conjugate to clear from the serum” value in series [4] (patients) is at most 3 days. The “concentrations of SN-38G” value in [4] (serum, HPLC) is given as “Low concentrations”. Also, the “SN-38 delivered to tumor relative to maximally tolerated irinotecan therapy” value in series [5] is on record as at most 136 fold. The SN-38 released daily in series [6] turned out to be 50%. Also, the “Trop-2+ CTC number following treatment” value in series [7] (NSCLC, periodic assays) is “substantial reduction”. For the same molecule, the “anti-hRS7 or anti-SN-38 antibodies” value in series [8] was “No anti-hRS7 or anti-SN-38 antibodies were detected”. Also, the “antibody response to IMMU-132” value in [8] is recorded as “no evidence of an antibody response”.
For the molecule QIEYLAKQIVDNAIQQA [AKAP-IS], the Kd in series [9] was 0.4 nM.
Consider QIEYVAKQIVDYAIHQA [SuperAKAP-IS], for which, in the series with RII isoform of PKA, the “selectivity for the RII isoform of PKA compared with the RI isoform” value is “five order of magnitude higher selectivity”.
